This is an account of results in US11420944B2, “Voltage-dependent t-type calcium channel blocker” (Nippon Chemiphar Co., Ltd., priority 2016, dated 2022).

For data set [1], the target named is T1, CYP3A4 (Homo sapiens, UniProt P08684).
T1 construct: purchased Cypex, Ltd; host or cells: E. coli membranes (Bactosomes)
In words: Evaluation of CYP3A4 activity inhibitory action. Type of data set: in vitro ADME. The following applies: Human CYP3A4BR EasyCYP Bactosomes, 7-Benzyloxy-4-(trifluoromethyl)-coumarin. How it is done:
Evaluation of CYP3A4 Activity Inhibitory Action
To a 50 mM potassium phosphate buffer solution (pH 7.4), 5 nM Human CYP3A4BR EasyCYP Bactosomes (Cypex, Ltd.), 50 μM 7-Benzyloxy-4-(trifluoromethyl)-coumarin, cofactor mix (0.0081 mM β-NADP^+, 0.4 mM G-6-P, 0.4 mM MgCl2, and 0.2 U/mL G-6-P DH(Y)), and 0.01% Pluronic F-127 were added, and the mixture was incubated for 45 minutes at 37° C. The reaction was initiated by adding the cofactor mix. After the incubation, 0.5 M Tris base/acetonitrile (20:80) was added thereto as a reaction terminating liquid, and the resulting mixture was stirred. Subsequently, the fluorescence intensity (excitation: 405 nm, emission: 535 nm) was measured. The reaction was carried out in duplicate. The results are presented as the inhibition rate at 10 μM of the test compound.

Data set [2] deals with T2, human Cav3.2 channels (Homo sapiens, UniProt O95180).
T2 construct: expressed in transfected cells; host or cells: HEK293 cells (ATCC No. CRL-1573), plasmid pcDNA3.1(+)
Briefly: Intracellular calcium concentration measurement (Fluo-4 AM) in stable cells expressing human Cav3.2 channels, buffer A / buffer B. Type of data set: cell-based. To be noted: Tables 2 to 6; buffer A, equilibrium potential of potassium −92 mV; read-out: Inhibitory action of buffer A (inactivated state). The gist of the method: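 State-dependent Cav3.2 inhibition compared in two buffers differing in potassium equilibrium potential (−92 vs −110 mV). Stable HEK293 line, Fluo-4 dye; compound 15 min, room temperature, dark, then KCl addition (83.8 or 91.8 mM) triggers calcium influx read 10 s; IC50 from peak increment over baseline.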

The target in data set [3] is T2, human Cav3.2 channels. In words: Electrophysiological evaluation, whole-cell patch-clamp with automatic patch-clamp system. Type of data set: cell-based. The following applies: for inhibition at 0.3 µM: holding potential −80 mV, read-out: Cav3.2 channel current inhibition ratio at 0.3 μM of test compound (holding potential −80 mV). How it is done: Electrophysiological Evaluation
Stable cell line expressing human Cav3.2 channels, which had been produced by Test method (1) of Example 140, was seeded in a 10-cm dish using DMEM medium containing 10% FBS, and the cells were cultured for 24 hours or longer under the conditions of 37° C. and 5% CO2. The cells were detached using Accutase and were used after being suspended in ice-cold extracellular solution. The Cav3.2 channel current was measured by the Whole-cell patch-clamp method using an automatic patch-clamp system (Port-a-Patch; Nanion Technologies GmbH, EPC-10; HEKA Elektronik GmbH, Patchmaster; HEKA Elektronik GmbH) and buffers described below. Measurement of the Cav3.2 channel current was carried out at room temperature, and the measurement conditions were set as follows: holding potential: −80 mV, depolarization potential: −20 mV, depolarization time: 100 msec, and depolarization frequency: 10 sec. The Cav3.2 channel current was defined as the peak value of the inward current observed when depolarization occurred at −20 mV.
For a test compound, a DMSO solution was diluted 1,000 times with extracellular solution, and thus a solution having an intended concentration was produced. The test compound was applied using an extracellular perfusion system (Nanion Technologies GmbH) until the Cav3.2 channel current was stabilized, and five concentrations at the maximum from the low-concentration side were cumulatively applied. The inhibition ratio of the test compound was calculated from the current value immediately before the application of the test compound and the change rate of the Cav3.2 channel current after the application of the test compound (conditions for a holding potential of −80 mV: test compound concentration of 0.3 μM, conditions for a holding potential of −100 mV: test compound concentration of 3 μM).
Extracellular solution: 135 mM NaCl, 4 mM KCl, 1 mM MgCl2, 5 mM CaCl2, 5 mM D-Glucose, and 10 mM HEPES, pH 7.4
Internal solution for electrode: 10 mM NaCl, 10 mM HEPES, 50 mM CsCl, 60 mM CsF, and 20 mM EGTA, pH 7.2
Background: In patch-clamp work, channel activity is measured electrically.

T2 sequence (O95180 whole entry): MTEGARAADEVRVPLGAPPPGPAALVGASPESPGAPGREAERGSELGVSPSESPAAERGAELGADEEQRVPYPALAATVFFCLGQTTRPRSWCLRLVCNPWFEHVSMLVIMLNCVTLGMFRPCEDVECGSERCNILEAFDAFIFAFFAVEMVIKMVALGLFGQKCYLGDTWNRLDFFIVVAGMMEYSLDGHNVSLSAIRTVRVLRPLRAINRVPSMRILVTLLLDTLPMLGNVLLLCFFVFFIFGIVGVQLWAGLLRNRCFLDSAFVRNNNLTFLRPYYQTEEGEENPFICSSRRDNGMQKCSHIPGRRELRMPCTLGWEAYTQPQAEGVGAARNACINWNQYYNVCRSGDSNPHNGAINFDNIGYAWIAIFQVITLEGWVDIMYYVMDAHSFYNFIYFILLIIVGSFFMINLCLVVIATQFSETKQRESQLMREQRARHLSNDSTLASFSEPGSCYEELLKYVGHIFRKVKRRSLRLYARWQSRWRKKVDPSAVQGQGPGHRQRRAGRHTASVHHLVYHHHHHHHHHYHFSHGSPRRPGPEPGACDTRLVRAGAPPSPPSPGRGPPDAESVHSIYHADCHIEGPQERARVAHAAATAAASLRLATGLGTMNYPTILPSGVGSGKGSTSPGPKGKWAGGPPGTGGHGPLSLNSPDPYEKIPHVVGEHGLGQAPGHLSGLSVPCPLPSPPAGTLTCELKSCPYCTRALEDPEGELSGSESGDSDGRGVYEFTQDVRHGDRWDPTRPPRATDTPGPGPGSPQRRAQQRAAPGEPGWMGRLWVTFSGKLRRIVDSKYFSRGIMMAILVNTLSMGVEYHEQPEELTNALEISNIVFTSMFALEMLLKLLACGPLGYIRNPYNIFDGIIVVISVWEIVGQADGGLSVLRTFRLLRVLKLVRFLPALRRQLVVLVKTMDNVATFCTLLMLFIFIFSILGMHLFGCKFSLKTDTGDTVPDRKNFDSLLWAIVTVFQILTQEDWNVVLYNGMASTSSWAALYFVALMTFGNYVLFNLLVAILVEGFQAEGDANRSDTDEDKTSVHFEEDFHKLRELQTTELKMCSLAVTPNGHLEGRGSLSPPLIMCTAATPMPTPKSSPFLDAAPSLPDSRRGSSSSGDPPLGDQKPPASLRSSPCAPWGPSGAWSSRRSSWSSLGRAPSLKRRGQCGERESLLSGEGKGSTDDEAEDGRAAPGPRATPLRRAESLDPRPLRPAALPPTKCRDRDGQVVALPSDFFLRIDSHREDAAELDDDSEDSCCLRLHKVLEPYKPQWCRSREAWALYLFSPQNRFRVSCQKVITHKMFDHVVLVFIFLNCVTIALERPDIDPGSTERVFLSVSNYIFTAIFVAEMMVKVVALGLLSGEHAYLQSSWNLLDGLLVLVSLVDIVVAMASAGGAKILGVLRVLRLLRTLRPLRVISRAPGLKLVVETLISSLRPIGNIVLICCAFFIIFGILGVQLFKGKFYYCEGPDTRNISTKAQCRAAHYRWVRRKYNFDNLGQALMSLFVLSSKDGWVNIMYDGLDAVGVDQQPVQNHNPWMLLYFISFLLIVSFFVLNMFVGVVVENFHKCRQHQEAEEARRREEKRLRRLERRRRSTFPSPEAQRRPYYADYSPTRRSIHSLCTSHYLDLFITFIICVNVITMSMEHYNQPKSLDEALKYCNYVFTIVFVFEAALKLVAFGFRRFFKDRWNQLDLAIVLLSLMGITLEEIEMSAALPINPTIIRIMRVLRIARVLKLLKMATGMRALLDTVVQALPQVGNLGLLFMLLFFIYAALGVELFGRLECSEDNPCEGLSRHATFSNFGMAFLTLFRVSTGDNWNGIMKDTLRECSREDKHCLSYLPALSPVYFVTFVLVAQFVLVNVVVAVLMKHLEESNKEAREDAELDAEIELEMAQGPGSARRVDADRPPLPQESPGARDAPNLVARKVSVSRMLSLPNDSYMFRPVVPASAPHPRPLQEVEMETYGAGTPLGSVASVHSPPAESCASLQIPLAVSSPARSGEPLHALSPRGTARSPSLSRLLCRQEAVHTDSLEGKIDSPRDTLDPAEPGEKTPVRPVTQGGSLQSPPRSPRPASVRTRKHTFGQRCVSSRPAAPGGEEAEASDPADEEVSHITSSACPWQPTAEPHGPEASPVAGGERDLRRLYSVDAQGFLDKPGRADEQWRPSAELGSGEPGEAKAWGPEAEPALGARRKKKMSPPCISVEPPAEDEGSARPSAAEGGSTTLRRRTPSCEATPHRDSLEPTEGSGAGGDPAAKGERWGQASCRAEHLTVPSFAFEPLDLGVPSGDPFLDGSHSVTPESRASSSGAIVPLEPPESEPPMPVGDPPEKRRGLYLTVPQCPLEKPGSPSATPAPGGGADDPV
T1 sequence (P08684 whole entry): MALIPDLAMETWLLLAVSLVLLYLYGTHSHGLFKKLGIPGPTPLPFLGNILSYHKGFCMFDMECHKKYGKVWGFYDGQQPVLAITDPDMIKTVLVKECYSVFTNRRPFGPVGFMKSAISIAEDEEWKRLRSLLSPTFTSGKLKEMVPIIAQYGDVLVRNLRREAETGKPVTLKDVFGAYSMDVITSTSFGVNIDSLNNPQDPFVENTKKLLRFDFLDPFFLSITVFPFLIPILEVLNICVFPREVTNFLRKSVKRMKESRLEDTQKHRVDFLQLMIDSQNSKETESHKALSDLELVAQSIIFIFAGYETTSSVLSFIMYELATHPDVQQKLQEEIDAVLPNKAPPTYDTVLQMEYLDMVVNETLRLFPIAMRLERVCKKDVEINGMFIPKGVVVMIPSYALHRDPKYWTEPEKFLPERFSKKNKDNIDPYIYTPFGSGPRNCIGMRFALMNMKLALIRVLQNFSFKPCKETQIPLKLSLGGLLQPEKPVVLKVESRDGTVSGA

Take `C[C@@H](NC(=O)[C@@H]1CCN(CC(=O)Nc2ccccc2)C1)c1ccc(OCC(F)(F)F)s1.Cl` [Example 17]: the “CYP3A4 activity inhibition ratio at 10 μM of test compound” value (shortened to “CYP3A4 activity inhibition ratio”) in data set [1] turned out to be 31.8%.

For `C[C@@H](NC(=O)C1CC1c1nc2ccccc2[nH]1)c1ccc(C(=O)OC(C)(C)C)s1` (stereo partly drawn) [Example 25, Trans-5-((1R)-1-(2-(1H-benzo[d]imidazol-2-yl)cyclopropane-1-carboxamido)ethyl)thiophene-2-carboxylic acid tert-butyl ester], the “CYP3A4 activity inhibition ratio” value in data set [1] was determined as 8.7%.

Turning to `C[C@@H](NC(=O)[C@H]1C[C@@H]1c1nc2ccccc2[nH]1)c1ccc(C(=O)OC(C)(C)C)s1` [Example 25A, Trans-5-((1R)-1-(2-(1H-benzo[d]imidazol-2-yl)cyclopropane-1-carboxamido)ethyl)thiophene-2-carboxylic acid tert-butyl ester], the IC50 in data set [2] is 100 to 1000 nM. For the same compound, the inhibition at 0.3 µM in data set [3] was 59%. Further, the “Cav3.2 channel current inhibition ratio at 3 μM of test compound (holding potential −100 mV)” value in data set [3] (3 μM, holding potential −100 mV) came out at 54%.

Turning to `C[C@@H](NC(=O)C1CC1c1ccc2ccccc2n1)c1ccc(OCC(F)(F)F)s1` (stereo partly drawn) [Example 34, Trans-2-(quinolin-2-yl)-N—((R)-1-(5-(2,2,2-trifluoroethoxy)thiophen-2-yl)ethyl)cyclopropane-1-carboxamide], the “CYP3A4 activity inhibition ratio” value in data set [1] worked out at 19.6%.

Regarding `CC(C)[C@@H](NC(=O)[C@H]1C[C@@H]1c1nc2ccccc2[nH]1)c1ccc(C(F)(F)F)s1` [Example 50, (1S,2S)-2-(1H-benzo[d]imidazol-2-yl)-N—((R)-2-methyl-1-(5-(trifluoromethyl)thiophen-2-yl)propyl)cyclopropane-1-carboxamide], the IC50 in data set [2] was in the range of 100 to 1000 nM. Further, the inhibition at 0.3 µM in data set [3] stood at 43%.

On to `Cc1nc(OCC(F)(F)F)sc1[C@@H](C)NC(=O)[C@H]1C[C@@H]1c1nc2ccccc2[nH]1` [Example 51, (1S,2S)-2-(1H-benzo[d]imidazol-2-yl)-N—((R)-1-(4-methyl-2-(2,2,2-trifluoroethoxy)thiazol-5-yl)ethyl)cyclopropane-1-carboxamide], for which the IC50 in data set [2] lay in the range of 100 to 1000 nM. Further, in data set [3], the inhibition at 0.3 µM came out at 33%.

Consider `C[C@@H](NC(=O)[C@H]1C[C@@H]1c1nc2ccccc2[nH]1)c1ccc2ccccc2n1` [Example 52, (1S,2S)-2-(1H-benzo[d]imidazol-2-yl)-N—((R)-1-(quinolin-2-yl)ethyl)cyclopropane-1-carboxamide], for which the IC50 in data set [2] lay within 100 to 1000 nM. Besides, the inhibition at 0.3 µM in data set [3] is 36%.

As to `C[C@@H](NC(=O)C1CC1c1nc2cc(Cl)ccc2[nH]1)c1ccc(OCC(F)(F)F)s1` (stereo partly drawn) [Example 53, Trans-2-(5-chloro-1H-benzo[d]imidazol-2-yl)-N—((R)-1-(5-(2,2,2-trifluoroethoxy)thiophen-2-yl)ethyl)cyclopropane-1-carboxamide], the “CYP3A4 activity inhibition ratio” value in data set [1] came out at 3.0%.

In the case of `CCn1c(C2CC2C(=O)N[C@H](C)c2cnc(OCC(F)(F)F)s2)nc2ccccc21` (stereo partly drawn) [Example 57, Trans-2-(1-ethyl-1H-benzo[d]imidazol-2-yl)-N—((R)-1-(2-(2,2,2-trifluoroethoxy)thiazol-5-yl)ethyl)cyclopropane-1-carboxamide], in data set [1], the “CYP3A4 activity inhibition ratio” value is −1.4%.

On to `C[C@@H](NC(=O)[C@H]1C[C@@H]1c1nc2ccccc2[nH]1)c1ccc(C(=O)N(C)c2ccc(F)cc2)s1` [Example 62, Trans-5-((1R)-1-(2-(1H-benzo[d]imidazol-2-yl)cyclopropane-1-carboxamido)ethyl)-N-(4-fluorophenyl)-N-methylthiophene-2-carboxamide], for which, in data set [2], the IC50 lay within 100 to 1000 nM. Further, the inhibition at 0.3 µM in data set [3] turned out to be 34%.

For the compound `C[C@@H](NC(=O)[C@H]1C[C@@H]1c1nc2ccccc2[nH]1)c1cc2cc(F)ccc2s1` [Example 66, (1S,2S)-2-(1H-benzo[d]imidazol-2-yl)-N—((R)-1-(5-fluorobenzo[b]thiophen-2-yl)ethyl)cyclopropane-1-carboxamide], in data set [2], the IC50 was not above 100 nM. Besides, the inhibition at 0.3 µM in data set [3] was found to be 81%.

For the compound `C[C@@H](NC(=O)[C@H]1C[C@@H]1c1nc2ccccc2[nH]1)c1ccc2c(c1)OC(F)(F)O2` [Example 73, (1S,2S)-2-(1H-benzo[d]imidazol-2-yl)-N—((R)-1-(2,2-difluorobenzo[d][1,3]dioxol-5-yl)ethyl)cyclopropane-1-carboxamide], the IC50 in data set [2] was 100 to 1000 nM. Besides, the inhibition at 0.3 µM in data set [3] is 50%.

In the case of `C[C@@H](NC(=O)[C@H]1C[C@@H]1c1nc2ccccc2[nH]1)c1cc2ccccc2o1` [Example 76, (1S,2S)-2-(1H-benzo[d]imidazol-2-yl)-N—((R)-1-(benzofuran-2-yl)ethyl)cyclopropane-1-carboxamide], the IC50 in data set [2] lay in the range of 100 to 1000 nM. Moreover, the inhibition at 0.3 µM in data set [3] was determined as 49%.

With `C[C@@H](NC(=O)[C@H]1C[C@@H]1c1nc2ccccc2[nH]1)c1ccc2c(c1)CCO2` [Example 78, (1S,2S)-2-(1H-benzo[d]imidazol-2-yl)-N—((R)-1-(2,3-dihydrobenzofuran-5-yl)ethyl)cyclopropane-1-carboxamide], in data set [2], the IC50 fell in the range of 100 to 1000 nM. Further, the inhibition at 0.3 µM in data set [3] came to 49%.

`C[C@@H](NC(=O)[C@H]1C[C@@H]1c1nc2ccccc2[nH]1)c1cc2cc(Cl)ccc2o1` [Example 82, (1S,2S)-2-(1H-benzo[d]imidazol-2-yl)-N—((R)-1-(5-chlorobenzofuran-2-yl)ethyl)cyclopropane-1-carboxamide]: the IC50 in data set [2] was not above 100 nM. Further, the inhibition at 0.3 µM in data set [3] was determined as 88%.

With `C[C@@H](NC(=O)[C@H]1C[C@@H]1c1nc2ccccc2[nH]1)c1cc2cc(F)cc(F)c2o1` [Example 88, (1S,2S)-2-(1H-benzo[d]imidazol-2-yl)-N—((R)-1-(5,7-difluorobenzofuran-2-yl)ethyl)cyclopropane-1-carboxamide], the IC50 in data set [2] is not above 100 nM. For the same compound, the inhibition at 0.3 µM in data set [3] was 37%.

`C[C@@H](NC(=O)[C@H]1C[C@@H]1c1nc2ccccc2[nH]1)c1cc2ccccn2n1` [Example 93, (1S,2S)-2-(1H-benzo[d]imidazol-2-yl)-N—((R)-1-(pyrazolo[1,5-a]pyridin-2-yl)ethyl)cyclopropane-1-carboxamide]: the IC50 in data set [2] is 1000 to 10000 nM. Besides, the inhibition at 0.3 µM in data set [3] is 22%.

Turning to `Cc1c([C@@H](C)NC(=O)[C@H]2C[C@@H]2c2nc3ccccc3[nH]2)oc2ccc(F)cc12` [Example 101, (1S,2S)-2-(1H-benzo[d]imidazol-2-yl)-N—((R)-1-(5-fluoro-3-methylbenzofuran-2-yl)ethyl)cyclopropane-1-carboxamide], the IC50 in data set [2] is not above 100 nM. For the same compound, in data set [3], the inhibition at 0.3 µM was found to be 73%.

For `CCn1c([C@H]2C[C@@H]2C(=O)N[C@H](C)c2cc3cc(F)ccc3o2)nc2ccccc21` [Example 102, (1S,2S)-2-(1-ethyl-1H-benzo[d]imidazol-2-yl)-N—((R)-1-(5-fluorobenzofuran-2-yl)ethyl)cyclopropane-1-carboxamide], the IC50 in data set [2] was not above 100 nM. Further, the inhibition at 0.3 µM in data set [3] was found to be 74%.

On to `CC(NC(=O)[C@H]1C[C@@H]1c1nc2ccccc2[nH]1)c1nc2cc(F)ccc2s1` (stereo partly drawn) [Example 104, (1S,2S)-2-(1H-benzo[d]imidazol-2-yl)-N-(1-(5-fluorobenzo[d]thiazol-2-yl)ethyl)cyclopropane-1-carboxamide], for which the IC50 in data set [2] is not above 100 nM. The inhibition at 0.3 µM in data set [3] came out at 52%.

Turning to `C[C@@H](NC(=O)Cc1ccc(C2CC2)cc1)c1ccc(OCC(F)(F)F)cn1` [TTA-A2, reference compound], in data set [1], the “CYP3A4 activity inhibition ratio” value worked out at 55.7%.
